# In patent US8163477B2, “Nuclease-based method for detecting and quantitating oligonucleotides” (Isis Pharmaceuticals, Inc, priority 2000, dated 2012):
# Assay: Plasma concentration after subcutaneous injection in mice (pharmacokinetic profile)
# Format: in vivo
# Details: 50 mg/kg subcutaneous
# Description: FIG. 5 is a graph showing the pharmacokinetic profile of ISIS 22023 following 50 mg/kg subcutaneous injection in mice. Plasma samples were analyzed at various time points using the oligonucleotide detection method of the present invention.
# Detection of ISIS 22023 after injection in mice ISIS 22023 (50 mg/kg) was injected subcutaneously into mice and the plasma concentration was determined at various times post-injection by the method described in Example 1. […] The predicted and observed half lives corresponded very well.
substance,measurement,value
"ISIS 2302: antisense oligonucleotide GCCCAAGCTGGCATCCGTCA (SEQ ID NO:2) (listed as DNA, chemistry not given here)",elimination half-life,very long
